Data as given in publication PMC10206524 (European journal of medicinal chemistry, 2022).

Key:
Type in all cases: biochemical
human SIRT5 = target: T1, human SIRT5 (Homo sapiens, UniProt Q9NXA8); assay: Trypsin coupled fluorescence-based inhibition assay, SIRT5; details: for fold increased potency against SIRT5 in comparison with 11: more potent than hit 11
T1 sequence (Q9NXA8 37-310): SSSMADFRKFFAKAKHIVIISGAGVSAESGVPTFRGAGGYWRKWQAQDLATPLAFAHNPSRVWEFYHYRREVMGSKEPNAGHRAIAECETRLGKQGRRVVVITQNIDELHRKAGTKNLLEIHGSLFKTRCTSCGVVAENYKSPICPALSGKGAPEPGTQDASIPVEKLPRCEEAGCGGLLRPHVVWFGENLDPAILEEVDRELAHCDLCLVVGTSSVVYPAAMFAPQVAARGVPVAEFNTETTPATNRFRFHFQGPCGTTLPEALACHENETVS

human SIRT1 = target: T2, human SIRT1 (Homo sapiens, UniProt Q96EB6); assay: Fluorescence-based inhibition assay, SIRT1; details: at the highest concentration of 400 μM
T2 sequence (Q96EB6 1-747): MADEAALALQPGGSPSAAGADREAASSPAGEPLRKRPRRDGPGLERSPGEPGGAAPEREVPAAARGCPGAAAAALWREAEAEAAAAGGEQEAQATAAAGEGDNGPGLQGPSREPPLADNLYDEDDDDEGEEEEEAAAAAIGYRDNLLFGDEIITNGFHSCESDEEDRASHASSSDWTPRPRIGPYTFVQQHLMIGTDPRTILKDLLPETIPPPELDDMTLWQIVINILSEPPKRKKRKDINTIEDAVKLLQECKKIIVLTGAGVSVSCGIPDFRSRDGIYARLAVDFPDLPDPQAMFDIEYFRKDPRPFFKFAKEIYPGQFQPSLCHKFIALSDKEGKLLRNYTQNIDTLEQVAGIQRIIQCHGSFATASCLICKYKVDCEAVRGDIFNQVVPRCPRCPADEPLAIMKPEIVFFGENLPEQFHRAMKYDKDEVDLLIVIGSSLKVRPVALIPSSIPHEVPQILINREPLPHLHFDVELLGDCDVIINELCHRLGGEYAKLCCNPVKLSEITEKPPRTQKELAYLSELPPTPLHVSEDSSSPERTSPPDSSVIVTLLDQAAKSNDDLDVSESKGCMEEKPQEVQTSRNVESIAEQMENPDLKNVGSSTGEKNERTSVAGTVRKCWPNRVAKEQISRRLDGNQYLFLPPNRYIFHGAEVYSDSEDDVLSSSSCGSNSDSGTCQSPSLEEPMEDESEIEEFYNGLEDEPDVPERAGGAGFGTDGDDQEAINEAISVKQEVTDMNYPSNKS

human SIRT3 = target: T3, human SIRT3 (Homo sapiens, UniProt Q9NTG7); assay: Fluorescence-based inhibition assay, SIRT3; details: at the highest concentration of 400 μM
T3 sequence (Q9NTG7 1-399): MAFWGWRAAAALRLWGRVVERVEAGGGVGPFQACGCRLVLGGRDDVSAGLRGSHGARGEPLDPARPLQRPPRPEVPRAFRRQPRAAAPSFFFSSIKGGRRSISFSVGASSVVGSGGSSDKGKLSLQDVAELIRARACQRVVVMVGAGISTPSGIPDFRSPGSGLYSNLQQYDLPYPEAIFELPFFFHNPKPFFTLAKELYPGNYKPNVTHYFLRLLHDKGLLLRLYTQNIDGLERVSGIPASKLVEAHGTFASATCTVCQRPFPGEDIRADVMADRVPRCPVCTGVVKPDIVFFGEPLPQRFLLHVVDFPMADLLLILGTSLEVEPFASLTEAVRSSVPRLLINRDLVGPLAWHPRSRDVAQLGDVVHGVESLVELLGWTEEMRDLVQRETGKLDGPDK

human SIRT2 = target: T4, human SIRT2 (Homo sapiens, UniProt Q8IXJ6); assay: Fluorescence-based inhibition assay, SIRT2; details: at the highest concentration of 400 μM
T4 sequence (Q8IXJ6 1-389): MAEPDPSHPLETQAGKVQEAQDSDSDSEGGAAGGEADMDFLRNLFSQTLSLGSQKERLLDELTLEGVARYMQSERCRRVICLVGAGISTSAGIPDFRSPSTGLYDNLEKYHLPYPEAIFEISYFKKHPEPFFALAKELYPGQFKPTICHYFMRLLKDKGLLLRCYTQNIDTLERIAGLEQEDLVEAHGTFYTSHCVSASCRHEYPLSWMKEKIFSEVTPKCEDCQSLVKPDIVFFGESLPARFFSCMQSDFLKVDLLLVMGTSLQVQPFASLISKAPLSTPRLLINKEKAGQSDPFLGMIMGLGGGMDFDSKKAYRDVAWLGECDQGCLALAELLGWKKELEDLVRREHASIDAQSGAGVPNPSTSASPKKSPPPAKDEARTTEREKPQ

O=C(O)c1ccc(NC(=S)Nc2nc(-c3ccc([N+](=O)[O-])cc3)cs2)cc1O [Compound 30, 2-hydroxy-4-(3-(4-(4-nitrophenyl)thiazol-2-yl)thioureido)benzoic acid]
fold increased potency against SIRT5 in comparison with 11 (human SIRT5): 6 fold

CC(=O)Nc1ccc(-c2csc(NC(=S)Nc3ccc(C(=O)O)c(O)c3)n2)cc1 [Compound 14, 4-(3-(4-(4-acetamidophenyl)thiazol-2-yl)thioureido)-2-hydroxybenzoic acid]
fold increased potency against SIRT5 in comparison with 11 (human SIRT5): 2 fold
inhibition against SIRT1 (human SIRT1): no inhibition
inhibition against SIRT3 (human SIRT3): no inhibition
inhibition against SIRT2 (human SIRT2): no inhibition

CC(=O)Nc1ccc(-c2csc(Nc3ccc(C(=O)O)cc3)n2)cc1 [Compound 13, 4-((4-(4-acetamidophenyl)thiazol-2-yl)amino)benzoic acid]
fold less potent than 11 against SIRT5 (human SIRT5; less potent than hit 11): about 8 fold

CC(=O)Nc1ccc(-c2csc(Nc3ccc(C(=O)O)c(O)c3)n2)cc1 [Compound 11, 4-((4-(4-acetamidophenyl)thiazol-2-yl)amino)-2-hydroxybenzoic acid]
inhibition against SIRT1 (human SIRT1): no inhibitions
inhibition against SIRT3 (human SIRT3): no inhibitions
inhibition against SIRT2 (human SIRT2): no inhibitions

O=C(O)c1ccc(NC(=S)Nc2nc(-c3ccc([N+](=O)[O-])c(S(=O)(=O)NCc4ccccc4)c3)cs2)cc1O [Compound 43, 4-(3-(4-(3-(N-benzylsulfamoyl)-4-nitrophenyl)thiazol-2-yl)thioureido)-2-hydroxybenzoic acid]
fold increased potency against SIRT5 in comparison with 11 (human SIRT5): 10 fold
inhibition against SIRT1 (human SIRT1): no inhibition
inhibition against SIRT3 (human SIRT3): no inhibition
inhibition against SIRT2 (human SIRT2): no inhibition
